From the supplement of paper PMC12463676, “Small-molecule dissolution of stress granules by redox modulation benefits ALS models” (Nature Chemical Biology, 2025)
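Further: each temperature applied for 3 min, abundance score taken as mean log2 fold change at the two lowest temperatures, z-score obtained by mean subtraction and division by SD.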

UniProt Q9H8V3, sequence (Q9H8V3 whole entry): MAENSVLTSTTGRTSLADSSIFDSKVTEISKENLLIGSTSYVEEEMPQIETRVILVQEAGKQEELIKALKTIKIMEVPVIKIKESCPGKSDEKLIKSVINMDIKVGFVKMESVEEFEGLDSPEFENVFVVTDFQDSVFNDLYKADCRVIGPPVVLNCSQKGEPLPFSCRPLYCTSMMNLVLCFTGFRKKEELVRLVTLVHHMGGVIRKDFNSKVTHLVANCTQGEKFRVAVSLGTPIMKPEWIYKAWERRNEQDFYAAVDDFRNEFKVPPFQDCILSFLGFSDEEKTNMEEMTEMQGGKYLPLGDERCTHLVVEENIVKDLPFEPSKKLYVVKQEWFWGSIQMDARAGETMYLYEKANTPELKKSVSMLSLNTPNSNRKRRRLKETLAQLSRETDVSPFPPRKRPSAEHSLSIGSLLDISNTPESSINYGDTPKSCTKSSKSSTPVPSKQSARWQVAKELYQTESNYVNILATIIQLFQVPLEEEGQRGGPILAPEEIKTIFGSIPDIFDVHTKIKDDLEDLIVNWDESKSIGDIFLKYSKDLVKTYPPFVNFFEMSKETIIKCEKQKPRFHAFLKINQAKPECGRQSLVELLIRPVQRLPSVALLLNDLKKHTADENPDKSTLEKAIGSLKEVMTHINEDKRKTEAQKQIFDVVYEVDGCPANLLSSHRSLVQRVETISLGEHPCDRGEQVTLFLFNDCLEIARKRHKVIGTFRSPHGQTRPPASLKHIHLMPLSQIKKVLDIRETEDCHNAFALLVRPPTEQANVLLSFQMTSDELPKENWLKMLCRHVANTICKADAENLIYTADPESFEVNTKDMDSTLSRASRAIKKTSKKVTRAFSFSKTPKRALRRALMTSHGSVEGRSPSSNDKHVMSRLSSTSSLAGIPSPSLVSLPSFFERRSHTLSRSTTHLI
UniProt Q13492, sequence (Q13492 whole entry): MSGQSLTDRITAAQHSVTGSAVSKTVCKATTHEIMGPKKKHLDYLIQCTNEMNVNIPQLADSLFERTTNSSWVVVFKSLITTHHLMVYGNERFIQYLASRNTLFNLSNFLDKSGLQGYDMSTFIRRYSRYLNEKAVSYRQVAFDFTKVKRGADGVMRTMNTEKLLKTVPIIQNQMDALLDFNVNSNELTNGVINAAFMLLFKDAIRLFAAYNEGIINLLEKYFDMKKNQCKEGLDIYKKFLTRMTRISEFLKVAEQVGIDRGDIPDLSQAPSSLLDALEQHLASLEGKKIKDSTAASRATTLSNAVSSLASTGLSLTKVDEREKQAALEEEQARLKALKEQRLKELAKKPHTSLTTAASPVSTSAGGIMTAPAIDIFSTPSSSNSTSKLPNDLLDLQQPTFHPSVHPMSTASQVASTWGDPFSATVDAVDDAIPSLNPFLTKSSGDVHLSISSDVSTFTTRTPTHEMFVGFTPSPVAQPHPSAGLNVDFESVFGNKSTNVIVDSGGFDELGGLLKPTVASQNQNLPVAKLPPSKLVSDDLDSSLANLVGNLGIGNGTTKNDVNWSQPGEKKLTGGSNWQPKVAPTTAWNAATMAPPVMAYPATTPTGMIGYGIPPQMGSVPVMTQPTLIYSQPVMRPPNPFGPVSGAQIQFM
UniProt Q96PZ0, sequence (Q96PZ0 whole entry): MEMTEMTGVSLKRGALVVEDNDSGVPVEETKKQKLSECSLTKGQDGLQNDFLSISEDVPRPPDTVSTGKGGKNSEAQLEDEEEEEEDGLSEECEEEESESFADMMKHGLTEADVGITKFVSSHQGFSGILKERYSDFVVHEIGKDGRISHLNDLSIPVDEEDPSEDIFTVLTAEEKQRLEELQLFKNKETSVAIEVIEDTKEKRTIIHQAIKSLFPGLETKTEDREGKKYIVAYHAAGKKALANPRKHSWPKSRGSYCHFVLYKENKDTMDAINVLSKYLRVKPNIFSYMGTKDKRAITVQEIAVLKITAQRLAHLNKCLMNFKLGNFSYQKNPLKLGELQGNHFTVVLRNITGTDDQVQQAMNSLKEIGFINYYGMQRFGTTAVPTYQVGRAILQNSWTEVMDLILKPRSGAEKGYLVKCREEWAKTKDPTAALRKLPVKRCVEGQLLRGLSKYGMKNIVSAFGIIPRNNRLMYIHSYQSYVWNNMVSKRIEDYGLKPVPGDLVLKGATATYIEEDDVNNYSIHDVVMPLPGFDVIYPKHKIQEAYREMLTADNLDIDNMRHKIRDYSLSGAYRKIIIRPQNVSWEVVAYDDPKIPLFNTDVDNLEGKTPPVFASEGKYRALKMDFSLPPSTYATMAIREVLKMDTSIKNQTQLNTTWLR
UniProt P49914, sequence (P49914 whole entry): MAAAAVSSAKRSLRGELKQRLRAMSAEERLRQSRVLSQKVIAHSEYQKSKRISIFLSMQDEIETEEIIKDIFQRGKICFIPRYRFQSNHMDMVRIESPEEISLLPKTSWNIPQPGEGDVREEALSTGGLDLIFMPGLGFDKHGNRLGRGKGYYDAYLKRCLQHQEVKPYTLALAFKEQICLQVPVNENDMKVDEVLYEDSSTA
UniProt Q3KQV9, sequence (Q3KQV9 whole entry): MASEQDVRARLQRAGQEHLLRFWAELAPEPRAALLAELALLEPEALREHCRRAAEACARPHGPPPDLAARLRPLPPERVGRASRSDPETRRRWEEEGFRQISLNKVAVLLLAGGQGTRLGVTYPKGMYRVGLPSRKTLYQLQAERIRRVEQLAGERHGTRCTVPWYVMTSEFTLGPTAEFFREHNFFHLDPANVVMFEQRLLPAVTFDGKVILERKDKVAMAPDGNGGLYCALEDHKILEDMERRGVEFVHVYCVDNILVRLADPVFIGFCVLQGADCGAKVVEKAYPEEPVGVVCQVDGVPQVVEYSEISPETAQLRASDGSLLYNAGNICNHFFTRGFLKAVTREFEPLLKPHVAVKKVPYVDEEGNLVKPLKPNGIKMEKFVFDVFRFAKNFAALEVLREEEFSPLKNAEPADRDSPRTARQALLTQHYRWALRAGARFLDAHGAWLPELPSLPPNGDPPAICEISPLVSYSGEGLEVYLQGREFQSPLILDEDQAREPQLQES
UniProt Q8NC56, sequence (Q8NC56 whole entry): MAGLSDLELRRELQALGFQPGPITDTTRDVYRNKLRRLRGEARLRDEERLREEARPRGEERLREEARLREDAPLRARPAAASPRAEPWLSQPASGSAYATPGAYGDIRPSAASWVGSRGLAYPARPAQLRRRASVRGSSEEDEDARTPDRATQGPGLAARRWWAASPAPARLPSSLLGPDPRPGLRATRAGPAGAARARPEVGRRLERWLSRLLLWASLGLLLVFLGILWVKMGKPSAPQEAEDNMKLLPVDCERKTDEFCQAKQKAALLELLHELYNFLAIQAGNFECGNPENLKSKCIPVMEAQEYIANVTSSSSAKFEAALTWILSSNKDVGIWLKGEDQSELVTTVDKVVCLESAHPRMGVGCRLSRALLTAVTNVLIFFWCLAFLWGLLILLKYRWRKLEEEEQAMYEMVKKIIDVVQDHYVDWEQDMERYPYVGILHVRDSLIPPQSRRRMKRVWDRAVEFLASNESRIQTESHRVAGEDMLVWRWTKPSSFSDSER
UniProt P40925, sequence (P40925 whole entry): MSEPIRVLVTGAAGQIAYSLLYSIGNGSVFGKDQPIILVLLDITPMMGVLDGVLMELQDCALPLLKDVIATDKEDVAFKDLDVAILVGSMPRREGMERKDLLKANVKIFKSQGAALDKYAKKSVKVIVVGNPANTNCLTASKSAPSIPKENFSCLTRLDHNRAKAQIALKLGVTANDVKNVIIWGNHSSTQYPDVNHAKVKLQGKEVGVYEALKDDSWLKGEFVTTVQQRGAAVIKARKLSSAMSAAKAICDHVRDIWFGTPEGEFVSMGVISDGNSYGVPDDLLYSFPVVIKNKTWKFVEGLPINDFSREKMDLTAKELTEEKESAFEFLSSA
UniProt Q13409, sequence (Q13409 whole entry): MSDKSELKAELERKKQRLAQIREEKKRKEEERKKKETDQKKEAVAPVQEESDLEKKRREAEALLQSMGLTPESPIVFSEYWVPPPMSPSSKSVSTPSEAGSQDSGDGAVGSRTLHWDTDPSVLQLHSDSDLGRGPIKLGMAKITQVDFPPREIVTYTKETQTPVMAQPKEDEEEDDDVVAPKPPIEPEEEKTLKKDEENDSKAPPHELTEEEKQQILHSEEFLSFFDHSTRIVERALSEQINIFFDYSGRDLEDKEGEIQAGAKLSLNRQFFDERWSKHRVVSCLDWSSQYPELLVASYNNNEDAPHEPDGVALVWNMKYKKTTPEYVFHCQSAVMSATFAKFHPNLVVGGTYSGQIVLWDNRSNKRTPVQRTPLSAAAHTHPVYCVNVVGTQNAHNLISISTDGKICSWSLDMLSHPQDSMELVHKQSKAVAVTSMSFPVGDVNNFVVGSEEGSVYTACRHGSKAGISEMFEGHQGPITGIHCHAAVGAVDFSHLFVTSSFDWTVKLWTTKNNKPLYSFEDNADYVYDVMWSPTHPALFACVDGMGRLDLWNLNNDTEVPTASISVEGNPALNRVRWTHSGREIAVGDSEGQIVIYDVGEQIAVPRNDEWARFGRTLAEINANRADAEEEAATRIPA
UniProt Q13642, sequence (Q13642 whole entry): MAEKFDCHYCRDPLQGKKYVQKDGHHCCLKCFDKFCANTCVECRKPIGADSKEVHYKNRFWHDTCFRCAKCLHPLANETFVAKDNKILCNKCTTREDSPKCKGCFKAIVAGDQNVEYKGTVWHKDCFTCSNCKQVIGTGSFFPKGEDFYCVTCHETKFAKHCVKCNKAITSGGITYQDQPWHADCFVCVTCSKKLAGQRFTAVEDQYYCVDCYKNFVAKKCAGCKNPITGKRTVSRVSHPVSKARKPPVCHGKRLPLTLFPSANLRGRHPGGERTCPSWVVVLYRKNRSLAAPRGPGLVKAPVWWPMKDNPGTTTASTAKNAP
UniProt Q9NRG1, sequence (Q9NRG1 whole entry): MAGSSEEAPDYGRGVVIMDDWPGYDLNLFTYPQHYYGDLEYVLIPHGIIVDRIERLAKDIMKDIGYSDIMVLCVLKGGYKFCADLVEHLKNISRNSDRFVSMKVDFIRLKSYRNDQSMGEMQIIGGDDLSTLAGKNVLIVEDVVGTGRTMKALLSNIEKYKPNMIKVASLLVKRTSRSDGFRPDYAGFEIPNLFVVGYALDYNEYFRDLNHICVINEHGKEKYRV

The targets below were run with NC(=O)CCCCC1CCSS1 [lipoamide] (assay: thermal stability z-score vs DMSO; higher = more thermally stabilized by treatment). Conditions: HeLa; lipoamide concentration 100 µM; arsenate co-treatment: 1 mM arsenate 1 h.
Experimental: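 Cellular thermal proteome profiling in HeLa cells. Cells were treated with 100 µM lipoamide for 1 h, with or without 1 mM arsenate for a further 1 h, then heated to ten temperatures (37-66.3 °C), and soluble protein was quantified by TMT mass spectrometry relative to 0.1% DMSO controls. The thermal stability score (sum of log2 fold changes minus the abundance score) was transformed to a z-score; mean of n = 3 experiments.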
MYO10 (UniProt Q9HD67) was tested, and the thermal stability z-score was 0.223. With DYNC1I2 (UniProt Q13409) the thermal stability z-score was 0.0629. Work on NUDT21 (UniProt O43809) yielded a thermal stability z-score of 1.57. Target MDH1 (UniProt P40925) has a thermal stability z-score of 0.208. CASP3 (UniProt P42574) gave a thermal stability z-score of 0.382. Target MRPL2 (UniProt Q5T653) has a thermal stability z-score of 0.745. For CNOT3 (UniProt O75175), the thermal stability z-score was -0.0612. TBC1D10A (UniProt Q9BXI6) gave a thermal stability z-score of -0.00261. In the case of USP4 (UniProt Q13107), the thermal stability z-score is reported as -0.209. EXOSC3 (UniProt Q9NQT5) showed a thermal stability z-score of 0.273. STRN (UniProt O43815) gave a thermal stability z-score of 0.402. HNRNPAB (UniProt Q99729) was tested, and the thermal stability z-score was 0.89. SPAG5 (UniProt Q96R06) was tested, and the thermal stability z-score was -0.791. KLF4 (UniProt O43474) showed a thermal stability z-score of -0.157. For PRTFDC1 (UniProt Q9NRG1), the thermal stability z-score was 0.628. URGCP (UniProt Q8TCY9) was tested, and the thermal stability z-score was 0.532. In the case of MTHFS (UniProt P49914), the thermal stability z-score is reported as -0.574. ABHD11 (UniProt Q8NFV4) showed a thermal stability z-score of 0.183. Work on ATP5B (UniProt P06576) yielded a thermal stability z-score of -0.424. Work on LAMP1 (UniProt P11279) yielded a thermal stability z-score of 0.396. CKS2 (UniProt P33552) gave a thermal stability z-score of 0.199. With PICALM (UniProt Q13492) the thermal stability z-score was 0.107. Work on LEMD2 (UniProt Q8NC56) yielded a thermal stability z-score of -1.14. With FHL1 (UniProt Q13642) the thermal stability z-score was 0.358. MYO9B (UniProt Q13459) gave a thermal stability z-score of -0.266. Work on STAMBP (UniProt O95630) yielded a thermal stability z-score of -0.0484. GARS (UniProt P41250) was tested, and the thermal stability z-score was -0.224. Work on DPP3 (UniProt Q9NY33) yielded a thermal stability z-score of 0.77. PUS7 (UniProt Q96PZ0) was tested, and the thermal stability z-score was -0.447. For SLC12A4 (UniProt Q9UP95), the thermal stability z-score was -0.481. In the case of PHACTR4 (UniProt Q8IZ21), the thermal stability z-score is reported as 0.747. Work on NOLC1 (UniProt Q14978) yielded a thermal stability z-score of 0.36. TMEM65 (UniProt Q6PI78) showed a thermal stability z-score of -0.379. ECT2 (UniProt Q9H8V3) showed a thermal stability z-score of -0.0726. CEP55 (UniProt Q53EZ4) was tested, and the thermal stability z-score was -0.129. In the case of UAP1L1 (UniProt Q3KQV9), the thermal stability z-score is reported as 0.536.

Same assay, conditions: HeLa; lipoamide concentration 100 µM; arsenate co-treatment: none
CDC27 (UniProt P30260) gave a thermal stability z-score of 0.0944. Target MARC1 (UniProt Q5VT66) has a thermal stability z-score of 0.806. TRMT11 (UniProt Q7Z4G4) was tested, and the thermal stability z-score was -0.151. RPL6 (UniProt Q02878) showed a thermal stability z-score of 0.0467. Target NDOR1 (UniProt Q9UHB4) has a thermal stability z-score of 0.487. FAR1 (UniProt Q8WVX9) was tested, and the thermal stability z-score was -0.0751. Work on MANF (UniProt P55145) yielded a thermal stability z-score of -0.0959. RCOR1 (UniProt Q9UKL0) was tested, and the thermal stability z-score was 0.999. RNPEP (UniProt Q9H4A4) showed a thermal stability z-score of -0.189. MMGT1 (UniProt Q8N4V1) gave a thermal stability z-score of 0.397. ANAPC5 (UniProt Q9UJX4) gave a thermal stability z-score of -0.0827. RFC1 (UniProt P35251) was tested, and the thermal stability z-score was 1.77. With MYH14 (UniProt Q7Z406) the thermal stability z-score was 0.126. AIFM2 (UniProt Q9BRQ8) was tested, and the thermal stability z-score was -0.298. With MRPL24 (UniProt Q96A35) the thermal stability z-score was -0.311. USP39 (UniProt Q53GS9) gave a thermal stability z-score of -0.174. With HSPA9 (UniProt P38646) the thermal stability z-score was -0.531. Target ODF2 (UniProt Q5BJF6) has a thermal stability z-score of 0.0281. Work on ERCC4 (UniProt Q92889) yielded a thermal stability z-score of 0.00197. Work on MCM7 (UniProt P33993) yielded a thermal stability z-score of -0.294. With LSM7 (UniProt Q9UK45) the thermal stability z-score was 0.456. Target ZMYM2 (UniProt Q9UBW7) has a thermal stability z-score of -0.0436. In the case of ZC3HAV1L (UniProt Q96H79), the thermal stability z-score is reported as -0.218. In the case of GGA1 (UniProt Q9UJY5), the thermal stability z-score is reported as -0.393. NPR3 (UniProt P17342) gave a thermal stability z-score of -0.339. CTNNAL1 (UniProt Q9UBT7) gave a thermal stability z-score of 0.168. For UBQLN4 (UniProt Q9NRR5), the thermal stability z-score was 1.78. With SAMHD1 (UniProt Q9Y3Z3) the thermal stability z-score was 0.3. For ZC3HC1 (UniProt Q86WB0), the thermal stability z-score was 0.164. CCDC50 (UniProt Q8IVM0) gave a thermal stability z-score of 0.248. In the case of MPP1 (UniProt Q00013), the thermal stability z-score is reported as -0.0569. Target EHD2 (UniProt Q9NZN4) has a thermal stability z-score of -0.489. Work on DDX39A (UniProt O00148) yielded a thermal stability z-score of 0.12. For SYNCRIP (UniProt O60506), the thermal stability z-score was 0.179. In the case of ATF1 (UniProt P18846), the thermal stability z-score is reported as 1.84. MYO10 (UniProt Q9HD67) gave a thermal stability z-score of 0.44. For DYNC1I2 (UniProt Q13409), the thermal stability z-score was 0.266. NUDT21 (UniProt O43809) gave a thermal stability z-score of 0.0301. Work on MDH1 (UniProt P40925) yielded a thermal stability z-score of 0.368. With CASP3 (UniProt P42574) the thermal stability z-score was -0.0479. In the case of MRPL2 (UniProt Q5T653), the thermal stability z-score is reported as 0.173. CNOT3 (UniProt O75175) gave a thermal stability z-score of 0.0363. TBC1D10A (UniProt Q9BXI6) gave a thermal stability z-score of -0.137. USP4 (UniProt Q13107) was tested, and the thermal stability z-score was -0.11. In the case of EXOSC3 (UniProt Q9NQT5), the thermal stability z-score is reported as -0.000548. With STRN (UniProt O43815) the thermal stability z-score was 0.602. HNRNPAB (UniProt Q99729) gave a thermal stability z-score of 0.554. In the case of SPAG5 (UniProt Q96R06), the thermal stability z-score is reported as -0.122. KLF4 (UniProt O43474) was tested, and the thermal stability z-score was -0.548. PRTFDC1 (UniProt Q9NRG1) gave a thermal stability z-score of 0.169. URGCP (UniProt Q8TCY9) was tested, and the thermal stability z-score was 0.322. MTHFS (UniProt P49914) showed a thermal stability z-score of 0.036. Work on ABHD11 (UniProt Q8NFV4) yielded a thermal stability z-score of 0.151. ATP5B (UniProt P06576) gave a thermal stability z-score of -0.332. In the case of LAMP1 (UniProt P11279), the thermal stability z-score is reported as 0.531. CKS2 (UniProt P33552) gave a thermal stability z-score of 0.17. PICALM (UniProt Q13492) gave a thermal stability z-score of -0.16. LEMD2 (UniProt Q8NC56) showed a thermal stability z-score of -1.41. FHL1 (UniProt Q13642) showed a thermal stability z-score of 0.294. MYO9B (UniProt Q13459) showed a thermal stability z-score of -0.1. In the case of STAMBP (UniProt O95630), the thermal stability z-score is reported as -7.9e-05. For GARS (UniProt P41250), the thermal stability z-score was -0.223. With DPP3 (UniProt Q9NY33) the thermal stability z-score was 0.569. For PUS7 (UniProt Q96PZ0), the thermal stability z-score was 0.26. SLC12A4 (UniProt Q9UP95) showed a thermal stability z-score of -1.18. Work on PHACTR4 (UniProt Q8IZ21) yielded a thermal stability z-score of 0.22. NOLC1 (UniProt Q14978) gave a thermal stability z-score of 0.113. TMEM65 (UniProt Q6PI78) was tested, and the thermal stability z-score was -0.204. ECT2 (UniProt Q9H8V3) was tested, and the thermal stability z-score was -0.00204. CEP55 (UniProt Q53EZ4) gave a thermal stability z-score of -0.0226. For UAP1L1 (UniProt Q3KQV9), the thermal stability z-score was 0.556.
